Key:
[1] = biological target: T1, Thymidine kinase 2 (Rattus norvegicus) (UniProt D3ZGQ2); assay: Ability to inhibit rat mitochondrial thymidine kinase; parameters: concentration or dose not given beside the values; settings: concentration not given here
T1 sequence (whole entry): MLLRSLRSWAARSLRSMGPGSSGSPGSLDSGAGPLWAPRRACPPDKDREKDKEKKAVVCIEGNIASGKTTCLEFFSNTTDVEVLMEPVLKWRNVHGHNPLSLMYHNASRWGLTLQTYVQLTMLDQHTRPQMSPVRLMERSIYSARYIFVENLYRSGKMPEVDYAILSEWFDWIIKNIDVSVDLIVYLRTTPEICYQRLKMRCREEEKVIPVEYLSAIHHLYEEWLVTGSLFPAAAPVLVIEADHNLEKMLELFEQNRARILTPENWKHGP

[2] = biological target: T2, Thymidine kinase, cytosolic (Rattus norvegicus) (UniProt P27158); assay: Ability to inhibit rat cytoplasmic Thymidine kinase; parameters: concentration or dose not given beside the values; settings: concentration not given here
T2 sequence (whole entry): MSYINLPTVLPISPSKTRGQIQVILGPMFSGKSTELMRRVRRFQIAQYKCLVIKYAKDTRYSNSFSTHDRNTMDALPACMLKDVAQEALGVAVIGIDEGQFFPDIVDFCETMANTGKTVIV

[3] = biological target: T3, Thymidine kinase, cytosolic (Rattus norvegicus, UniProt P27158); assay: Affinity towards cytoplasmic Thymidine kinase relative ot TdR; expressed as KM (TdR)/Ki
T3 sequence (P27158 whole entry): T2 sequence (whole entry)

Thymidine kinase 2 = biological target: T4, Thymidine kinase 2 (Rattus norvegicus, UniProt D3ZGQ2); assay: Competitive inhibition against rat mitochondrial thymidine kinase
T4 sequence (D3ZGQ2 whole entry): T1 sequence (whole entry)

[4] = biological target: T1, Thymidine kinase 2 (Rattus norvegicus); assay: Affinity towards mitochondrial thymidine kinase relative to TdR.
[5] = biological target: T2, Thymidine kinase, cytosolic (Rattus norvegicus); assay: Affinity towards cytoplasmic Thymidine kinase relative ot TdR.
Rattus norvegicus = species: Rattus norvegicus; assay: Differential affinity is the ratio between M-TK and C-TK
[6] = biological target: T3, Thymidine kinase, cytosolic; assay: Competitive inhibition against rat cytoplasmic Thymidine kinase
[7] = biological target: T2, Thymidine kinase, cytosolic (Rattus norvegicus); assay: (§1) Competitive inhibition against rat cytoplasmic thymidine kinase; parameters: concentration or dose not given beside the values; settings: concentration not given here
[8] = biological target: T3, Thymidine kinase, cytosolic; assay: as §1
[9] = biological target: T2, Thymidine kinase, cytosolic (Rattus norvegicus); assay: Affinity towards cytoplasmic thymidine kinase relative ot TdR; expressed as KM (TdR)/Ki

Compound	inhibition [1]	inhibition [2]	Ki (Thymidine kinase 2)	Relative affinity [4]	Relative affinity [5]	Differential affinity (Rattus norvegicus)	Ki [6]	further results
CCNc1ccn([C@H]2C[C@H](O)[C@@H](CO)O2)c(=O)n1	5%	7%						
CCCCCn1c(=O)c(C)cn([C@H]2C[C@H](O)[C@@H](CO)O2)c1=O			1100 µM	0.0073	0.044	0.17	36 µM	
Cc1cn([C@H]2C[C@H](O)[C@@H](CO)O2)c(=O)n(Cc2ccccc2)c1=O	10%			> 0.002	0.05	0.04		Ki [8]: 320 µM
CCC(=O)O[C@H]1C[C@H](n2ccc(N)nc2=O)O[C@@H]1CO	19%							inhibition [7]: 8%
Cn1c(=O)ccn([C@H]2C[C@H](O)[C@@H](CO)O2)c1=O	4%							inhibition [7]: 62%
Nc1ccn([C@@H]2O[C@H](CO)[C@@H](O)[C@H]2O)c(=O)n1	13%	1%						
Cc1cn([C@H]2C[C@H](OCc3ccccc3)[C@@H](CO)O2)c(=O)[nH]c1=O			8 µM	1	0.133	7.5		Ki [8]: 12 µM
Nc1nc(=O)n([C@H]2C[C@H](O)[C@@H](CO)O2)cc1I [IBACITABINE]							11400 µM	
CO[C@H]1C[C@H](n2ccc(N)nc2=O)O[C@@H]1CO	24%							inhibition [7]: 3%
CC1CN([C@H]2C[C@H](O)[C@@H](CO)O2)C(=O)NC1=O (stereo partly specified)	83%		77 µM	0.1				inhibition [7]: 53%
O=c1ccn([C@@H]2O[C@H](CO)[C@@H](O)[C@H]2O)c(=O)[nH]1	4%	4%						
CCOC1N([C@H]2C[C@H](O)[C@@H](CO)O2)C(=O)NC(=O)C1(C)Br (stereo in doubt; 4b) [listing 1 of 2 here]				0.73	0.8	0.91		
Cc1cn([C@H]2C=C[C@@H](CO)O2)c(=O)[nH]c1=O [STAVUDINE]			3250 µM			2.7		
Nc1ccn([C@H]2C[C@H](O)[C@@H](CO)O2)c(=O)n1 [DOXECITINE]	58%	7%	320 µM	0.025				
Cc1cn([C@H]2C[C@H](O)[C@@H](CO)O2)c(=O)nc1N				0.006	0.00076	7.9	2100 µM	
CCOC1N([C@H]2C[C@H](O)[C@@H](CO)O2)C(=O)NC(=O)C1(C)Br (stereo in doubt; 4c) [listing 1 of 2 here]				0.73	0.41	1.8		
CCOC1N([C@H]2C[C@H](O)[C@@H](CO)O2)C(=O)NC(=O)C1(C)Br (stereo in doubt; 4b) [listing 2 of 2 here]							2 µM	
CCOC1N([C@H]2C[C@H](O)[C@@H](CO)O2)C(=O)NC(=O)C1(C)Br (stereo in doubt; 4c) [listing 2 of 2 here]			11 µM				3.9 µM	

Continued, in another order:

inhibition [1]	inhibition [2]	Ki (Thymidine kinase 2)	Relative affinity [4]	Relative affinity [5]	Differential affinity (Rattus norvegicus)	Ki [6]	Compound	further results
53%	95%						CCCCNCC1OC(n2cc(C)c(=O)[nH]c2=O)CC1O (stereo unspecified)	
36%	48%						Cc1cn(C2CC(O)C(CSCCCC(=O)O)O2)c(=O)[nH]c1=O (stereo unspecified)	Ki [3]: 3600 µM
7%							CC[S+]([O-])CC1OC(n2cc(C)c(=O)[nH]c2=O)CC1O (stereo unspecified)	inhibition [7]: 4%
						15500 µM	C/C=C/c1cn([C@H]2C[C@H](O)[C@@H](CO)O2)c(=O)[nH]c1=O	
		250 µM	0.032	0.032	1	50 µM	CSc1cn([C@H]2C[C@H](O)[C@@H](CO)O2)c(=O)[nH]c1=O	
25%	40%						Cc1cn(C2CC(O)C(CSCCC(=O)O)O2)c(=O)[nH]c1=O (stereo unspecified)	
					< 4.8		CC(=O)NC1CC(n2cc(C)c(=O)[nH]c2=O)OC1CO (stereo unspecified)	
					< 0.022		Cc1cn([C@H]2C[C@H](O)[C@@H](CO)O2)c(=O)n(C)c1=O	
22%	49%			0.002		820 µM	Cc1cn(C2CC(O)C(CSCCO)O2)c(=O)[nH]c1=O (stereo unspecified)	
			0.14		3.2		CCO[C@H]1C[C@H](n2cc(C)c(=O)[nH]c2=O)O[C@@H]1CO	Ki [8]: 36 µM; Relative affinity [9]: 0.044
3%	30%						NCc1cn([C@H]2C[C@H](O)[C@@H](CO)O2)c(=O)[nH]c1=O	
		960 µM	0.0083	0.046	0.18	35 µM	CCCCCCNCC1OC(n2cc(C)c(=O)[nH]c2=O)CC1O (stereo unspecified)	
		4600 µM	0.0017	0.67	0.0025	2.4 µM	Cc1cn([C@H]2C[C@H](O)[C@@H](CN)O2)c(=O)[nH]c1=O	
74%	90%						O=c1ccn([C@H]2C[C@H](O)[C@@H](CO)O2)c(=O)[nH]1	
		2600 µM	0.0031	0.0042	0.74	380 µM	Cc1cn([C@H]2C[C@H](N)[C@@H](CO)O2)c(=O)[nH]c1=O [3-AMINO- 3-DEOXYTHYMIDINE]	
		880 µM	0.0091	0.004	2.3	400 µM	Cc1cn([C@H]2CC[C@@H](CO)O2)c(=O)[nH]c1=O	
		72 µM	0.11	0.0043	26	370 µM	Nc1cn([C@H]2C[C@H](O)[C@@H](CO)O2)c(=O)[nH]c1=O	
22%	11%						CCSCC1OC(n2cc(C)c(=O)[nH]c2=O)CC1O (stereo unspecified)	
11%	0%						CC(=O)Nc1cn([C@H]2C[C@H](O)[C@@H](CO)O2)c(=O)[nH]c1=O	
		62 µM	0.13	0.067	1.9	24 µM	CCSC1CC(n2cc(C)c(=O)[nH]c2=O)OC1CO (stereo unspecified)	
19%	20%						CC(=O)NCC1OC(n2cc(C)c(=O)[nH]c2=O)CC1O (stereo unspecified)	
		1440 µM	0.0056	0.04	0.14	40 µM	CCNCC1OC(n2cc(C)c(=O)[nH]c2=O)CC1O (stereo unspecified)	

From ChEMBL document CHEMBL1122068, “Species- or isozyme-specific enzyme inhibitors. 5. Differential effects of thymidine substituents on affinity for rat thymidine kinase isozymes” (J Med Chem, 1982)
